Data: US9227971B2, “Pyrazolo[1,5-a]pyrimidine compounds as mTOR inhibitors” (Merck Sharp & Dohme Corp., priority 2010, dated 2016)

System: phosphorylated AKT Ser473 (pAKT S473), mTORC2 activity, PC3 cells
Assay: mTOR target engagement assay, immunofluorescent cell-based, pAKT S473 readout (mTORC2 activity)
Conditions: Homo sapiens, PC-3, PC3 cells, compound treatment ninety minutes at 37° C.
Experimental: The target engagement of mTOR kinase inhibitors was evaluated using an immunofluorescent cell-based assay. In this assay, inhibition of mTORC1 activity was measured by the reduction in the level of phosphorylated 4E-BP1^[…] (p4E-BP1 Thr37/46), and inhibition of mTORC2 activity was measured by the reduction of phosphorylated AKT^Ser473 (pAKT S473).
PC3 cells (prostate tumor cell-line that contains a mutation in the tumor suppressor PTEN, that promotes the phosphorylation and activation of AKT and 4E-BP1) were used in the immunofluorescence assay. […] PC3 cells were then treated with 40 μl of the serially diluted test compounds (in 5% fetal bovine serum, F12 medium containing 0.25% DMSO) for ninety minutes at 37° C. The test compound solution was removed, and the plates were washed gently two times with 25 μl phosphate buffered saline (PBS). […] 5% Goat serum in PBS/0.3% Triton was used to block non-specific binding (60 minutes).
The primary antibodies targeting pAKT S473 and p4E-BP1 Thr37/46 were diluted into PBS/0.3% Triton and incubated with the cells overnight at 4° C. […] Plates were washed three times with PBS/0.1% Tween 20 before adding the secondary antibody at a 1:200 dilution.
Finally, the plates were washed three times with PBS/0.1% Tween 20 and the fluorescent intensity was read using an Analyst HT from Molecular Devices.

SMILES | IC50 [nM]
CC(=O)c1c([C@@H]2C[C@H]3CC[C@@H](C2)N3C(=O)[C@H](O)CO)nc2c(-c3ccc(-c4ccccc4)nc3)cnn2c1N [Compound 1.1.3, (R)-1-((1R,3S,5S)-3-(6-acetyl-7-amino-3-(6-phenylpyridin-3-yl)pyrazolo[1,5-a]pyrimidin-5-yl)-8-azabicyclo[3.2.1]octan-8-yl)-2,3-dihydroxypropan-1-one] | 100 to 1000
CC(=O)c1c([C@@H]2C[C@H]3CC[C@@H](C2)N3C(=O)C(C)(C)O)nc2c(-c3ccc(-c4ccccc4)nc3)cnn2c1N [Compound 1.1.6, 1-((1R,3s,5S)-3-(6-acetyl-7-amino-3-(6-phenylpyridin-3-yl)pyrazolo[1,5-a]pyrimidin-5-yl)-8-azabicyclo[3.2.1]octan-8-yl)-2-hydroxy-2-methylpropan-1-one] | 100 to 1000
CC(=O)c1c([C@@H]2C[C@H]3CC[C@@H](C2)N3C(=O)[C@@H](C)O)nc2c(-c3ccc(-c4nccs4)nc3)cnn2c1N [Compound 1.1.34, (R)-1-((1R,3S,5S)-3-(6-acetyl-7-amino-3-(6-(thiazol-2-yl)pyridin-3-yl)pyrazolo[1,5-a]pyrimidin-5-yl)-8-azabicyclo[3.2.1]octan-8-yl)-2-hydroxypropan-1-one] | 100 to 1000
CC(=O)c1c([C@@H]2C[C@H]3CC[C@@H](C2)N3C(=O)C(C)(C)O)nc2c(-c3ccc(-c4nccs4)nc3)cnn2c1N [Compound 1.1.35, 1-((1R,3s,5S)-3-(6-acetyl-7-amino-3-(6-(thiazol-2-yl)pyridin-3-yl)pyrazolo[1,5-a]pyrimidin-5-yl)-8-azabicyclo[3.2.1]octan-8-yl)-2-hydroxy-2-methylpropan-1-one] | 100 to 1000
CC(=O)c1c([C@@H]2C[C@H]3CC[C@@H](C2)N3C(=O)c2ccn[nH]2)nc2c(-c3ccc(-c4ccc(F)cc4)nc3)cnn2c1N [Compound 1.1.157, 1-(5-((1R,3s,5S)-8-(1H-pyrazole-5-carbonyl)-8-azabicyclo[3.2.1]octan-3-yl)-7-amino-3-(6-(4-fluorophenyl)pyridin-3-yl)pyrazolo[1,5-a]pyrimidin-6-yl)ethanone] | 1 to 100
CC(=O)c1c([C@@H]2C[C@H]3CC[C@@H](C2)N3C(=O)[C@@H](C)O)nc2c(-c3ccc(-c4ccc(F)cc4)nc3)cnn2c1N [Compound 1.1.158, (R)-1-((1R,3S,5S)-3-(6-acetyl-7-amino-3-(6-(4-fluorophenyl)pyridin-3-yl)pyrazolo[1,5-a]pyrimidin-5-yl)-8-azabicyclo[3.2.1]octan-8-yl)-2-hydroxypropan-1-one] | 100 to 1000

Same assay, conditions: Homo sapiens, PC-3, Table 3-1; PC3 cells

SMILES | IC50 [nM]
CS(=O)(=O)c1c([C@@H]2C[C@H]3CC[C@@H](C2)N3C(=O)c2ccn[nH]2)nc2c(-c3ccc(-c4ccc(F)cc4)nc3)cnn2c1N [Compound 3.121, ((1R,3s,5S)-3-(7-amino-3-(6-(4-fluorophenyl)pyridin-3-yl)-6-(methylsulfonyl)pyrazolo[1,5-a]pyrimidin-5-yl)-8-azabicyclo[3.2.1]octan-8-yl)(1H-pyrazol-5-yl)methanone] | 1 to 100
C[C@@H](O)C(=O)N1[C@@H]2CC[C@H]1C[C@H](c1nc3c(-c4ccc(-c5ccc(F)cc5)nc4)cnn3c(N)c1S(C)(=O)=O)C2 [Compound 3.122, (R)-1-((1R,3S,5S)-3-(7-amino-3-(6-(4-fluorophenyl)pyridin-3-yl)-6-(methylsulfonyl)pyrazolo[1,5-a]pyrimidin-5-yl)-8-azabicyclo[3.2.1]octan-8-yl)-2-hydroxypropan-1-one] | 100 to 1000

Same assay, conditions: Table 3-1; PC3 cells

SMILES | IC50 [nM]
CS(=O)(=O)c1c([C@@H]2C[C@H]3CC[C@@H](C2)N3C(=O)CO)nc2c(-c3ccc(-c4ccc(F)cc4)nc3)cnn2c1N [Compound 3.118, 1-((1R,3a,5S)-3-(7-amino-3-(6-(4-fluorophenyl)pyridin-3-yl)-6-(methylsulfonyl)pyrazolo[1,5-a]pyrimidin-5-yl)-8-azabicyclo[3.2.1]octan-8-yl)-2-hydroxyethanone] | 100 to 1000
